According to paper PMC8284440, “Toward New Transmission-Blocking Combination Therapies: Pharmacokinetics of 10-Amino-Artemisinins and 11-Aza-Artemisinin and Comparison with Dihydroartemisinin and Artemether” (Antimicrobial Agents and Chemotherapy, 2021):
Converted amounts (≈) assume the structure as drawn. “And” between values parts separate entries of the source, which are not always exact repeats. Equal entries are not always repeated. Where two headings read alike, the source gives them in different places.

Legend:
[1] = Metabolic stability in mouse liver microsomes; assay type: in vitro ADME; parameters: half-life / CLint scaled: dose or concentration left out as unconfirmed; conditions: for CLint scaled: calculated, read-out: Intrinsic liver clearance rate CLint Mouse; for half-life: read-out: Microsomal half-life t1/2 Mouse
Protocol: (ii) Metabolic stability in liver microsomes. The metabolic stability assay was performed in duplicate using 96-deepwell plates. Each compound (0.4 mM) was incubated individually in mouse, rat, and pooled human liver microsomes (0.4 mg/ml) at 37°C in the presence and absence of the cofactor NADPH (1 mM). An aliquot was taken at 0, 5, 10, 30, and 60 min, and the reaction was quenched by adding 300 μl of ice-cold acetonitrile containing the internal standard carbamazepine (0.0236 μg/ml) ([88]). The test compounds in the supernatant were analyzed by means of LC-MS/MS as described in “Sample analysis” below. The normalized data for each sample were used to calculate the in vitro half-life, intrinsic clearance rate, and hepatic extraction ratio from the results of this assay using the following equations ([88]).Equation 1. Normalized area. (1) Normalized area=(Peak area of sample at time point/Peak area of internal standard) Equation 2. Percent parent remaining. (2) % Parent=Normalized peak area of sample at time point/Normalized peak area of sample at t=0×100 Equation 3. Calculated t1/2. (3) t1/2=−0.693/λ where λ is the slope of the ln (% parent remaining) versus time curve of the compound.Equation 4. CLint. (4) CLint=[0.693/t1/2(min)]×[Volume of incubation (μl)/Microsomal protein (μg)] Equation 5. Hepatic extraction ratio. (5) EH=fu×CLint/QH + fu×CLint
Sample extraction. […] The organic layer was then transferred and evaporated under a gentle stream of nitrogen at room temperature for 30 min. The dried samples were reconstituted in mobile phase, and a 5 μl sample was injected for LC-MS/MS analysis. The only exception was the arylurea 10, for which no liquid-liquid extraction was conducted; instead, the 200 μl acetonitrile solution was evaporated under a gentle stream of nitrogen at room temperature. The dried sample was reconstituted in the mobile phase, and a 5 μl sample was injected for LC-MS/MS analysis. The plasma samples for each compound from the in vivo studies were extracted by mixing 350 μl ethyl acetate with 15 μl of plasma sample and 35 μl of universal buffer containing internal standard at pH 8. The samples were vortexed for 1 min and centrifuged for 5 min, and the organic layer was then transferred and evaporated under a gentle stream of nitrogen at room temperature for 30 min. The dried samples were each reconstituted in the mobile phase, and a 5 μl sample was injected for LC-MS/MS analysis.
LC-MS/MS analysis. For all the artemisinins except the arylurea 10, gradient chromatography was performed on a Phenomenex (Torrance, CA, USA) Luna PFP(2) analytical column (100 Å, 5 μm, 2 by 50 mm) and an AB Sciex API 5500 mass spectrometer which was operated at unit resolution in the multiple reaction monitoring (MRM) mode. The HPLC method used was a gradient method with 5 mM ammonium acetate and 0.1% acetic acid in water as the aqueous phase and a mixture of acetonitrile and methanol (1:1 vol/vol) containing 5% of the aqueous phase as the organic phase ([89]). The arylurea 10 was analyzed using a Phenomenex Gemini NX-C18 (5 μm, 2.1 mm by 50 mm) column with an AB Sciex 3200 QTRAP mass spectrometer operated at unit resolution in the MRM mode. The HPLC method used was a gradient method with 5 mM ammonium acetate and 0.1% acetic acid in water as the aqueous phase and a mixture of acetonitrile and methanol (1:1 vol/vol). The transitions of the molecular ions were monitored, as listed in Table S8 in the supporting information. The calibration range was between 0.002 μg/ml and 6.250 μg/ml. Data acquisition and evaluation were performed using Analyst 1.6.2 software (Applied Biosystems, Foster City, CA, USA). The formation of the putative metabolite DHA from the amino-artemisinins and the metabolite M1 of artemisone were evaluated in these mice PK studies; the MRM transitions of DHA and M1 (Table S8) were thus included in the LC-MS/MS assays.

P. falciparum K1 = system: P. falciparum K1; parameters: method as in ref 4 (supplement; main text 62); conditions: Table S2, ± SEM; ref 4 (supplement; main text 62); read-out: Antimalarial activities IC50 K1; cited from earlier work
P. falciparum NF54 [2] = system: P. falciparum NF54; parameters: method as in ref 4 (supplement; main text 62); conditions: Table S2, ± SEM; ref 4 (supplement; main text 62); read-out: Antimalarial activities IC50 NF54; cited from earlier work
P. falciparum W2 [3] = system: P. falciparum W2; parameters: method as in ref 4 (supplement; main text 62); conditions: Table S2, ± SEM; ref 4 (supplement; main text 62); read-out: Antimalarial activities IC50 W2; cited from earlier work
[4] = cited from earlier work
[5] = system: liver stage P. berghei ANKA GFP-Luc-SMcon sporozoites; parameters: method as in ref 2 (supplement; main text 48); conditions: ref 2 (supplement; main text 48), cited from earlier work; for IC50: 48 h, ± SD
P. falciparum W2 [6] = system: P. falciparum W2; parameters: method as in ref 1 and 2 (supplement; main text 47, 48); conditions: Table S1, ± SEM; ref 1 and 2 (supplement; main text 47, 48); cited from earlier work
HepG2 = conditions: read-out: Cytotoxicity EC50 HepG2; ref 2 (supplement; main text 48); cited from earlier work
[7] = system: Chinese hamster ovary (CHO) cells; conditions: read-out: Cytotoxicity EC50 CHO; MTT, ±SD; ref 1 and 2 (supplement; main text 47, 48); cited from earlier work
P. falciparum NF54 [8] = system: P. falciparum NF54; parameters: method as in ref 1 and 2 (supplement; main text 47, 48); conditions: Table S1, ± SEM; ref 1 and 2 (supplement; main text 47, 48); cited from earlier work
P. falciparum 7G8 = system: P. falciparum 7G8; parameters: method as in ref 5 (supplement; main text 63); conditions: CQ resistant; ref 5 (supplement; main text 63); read-out: Antimalarial activities IC50 7G8; cited from earlier work
P. falciparum TM93-C1088 = system: P. falciparum TM93-C1088; parameters: method as in ref 5 (supplement; main text 63); conditions: atovaquone and CQ resistant; ref 5 (supplement; main text 63); read-out: Antimalarial activities IC50 TM93-C1088; cited from earlier work
P. falciparum W2 [9] = system: P. falciparum W2; parameters: method as in ref 5 (supplement; main text 63); conditions: CQ resistant; ref 5 (supplement; main text 63); read-out: Antimalarial activities IC50 W2; cited from earlier work

| SMILES | Hepatic extraction ratio EH Mouse [1] | CLint scaled [1] | half-life [1] | IC50 (P. falciparum K1) | IC50 (P. falciparum NF54 [2]) | IC50 (P. falciparum W2 [3]) | IC50 [5] | Maximum inhibition % ([5]; at 10 µM) | IC50 (P. falciparum W2 [6]) | EC50 (HepG2) | EC50 [7] | aqueous solubility at pH 7.2 [4] | IC50 (P. falciparum NF54 [8]) | IC50 (P. falciparum 7G8) | IC50 (P. falciparum TM93-C1088) | IC50 (P. falciparum W2 [9]) | also measured |
| --- | --- | --- | --- | --- | --- | --- | --- | --- | --- | --- | --- | --- | --- | --- | --- | --- | --- |
| C[C@@H]1CC[C@H]2[C@@H](C)C(=O)N[C@@H]3O[C@@]4(C)CC[C@@H]1[C@]32OO4 [11-Aza-artemisinin 11, 11-aza-artemisinin] | 0.3 | 2.18 L/h/kg | > 150 min | 9.44 ± 2.93 nM | 10.5 ± 1.36 nM | 6.02 ± 1.81 nM |  |  |  |  |  |  |  |  |  |  |  |
| CO[C@H]1O[C@@H]2O[C@@]3(C)CC[C@H]4[C@H](C)CC[C@@H]([C@H]1C)[C@@]24OO3 [Artemether 3, artemether] | 0.8 | 23.6 L/h/kg | 17.4 min | 2.64 ± 0.18 nM | 1.86 ± 0.17 nM | 6.7 ± 0.6 nM | > 104 nM | 49.4% |  |  |  |  |  |  |  |  | aqueous solubility ([4]; 25°C): 0.0121 mg/mL (≈ 40.6 µM); aqueous solubility [4]: 0.3 mg/mL (≈ 1010 µM); aqueous solubility rating [4]: insoluble; aqueous solubility ([4]; variously recorded): < 1 mg/mL; IC50 ([5]; listed as artemether): > 10000 nM |
| C[C@H]1[C@H](N2CCSCC2)O[C@@H]2O[C@@]3(C)CC[C@H]4[C@H](C)CC[C@@H]1[C@@]24OO3 [Artemiside 5, artemiside] | 0.9 | 33.1 L/h/kg | 12.4 min |  |  |  | 81.3 nM |  | 1.75 ± 0.27 nM | > 25000 nM | > 271000 nM | < 2 mg/liter and < 5.4 μM | 1.11 ± 0.17 nM |  |  |  | Maximum inhibition % ([5]; at 5 µM): 99.05±1.34% |
| C[C@H]1[C@H](N2CCS(=O)(=O)CC2)O[C@@H]2O[C@@]3(C)CC[C@H]4[C@H](C)CC[C@@H]1[C@@]24OO3 [Artemisone 6, artemisone] | 0.9 | 48.3 L/h/kg | < 10 min |  |  |  | 28.3 nM | 93.35±1.76% | 1.6 ± 0.4 nM | > 50000 nM | > 249000 nM | 89 mg/liter and 221.6 μM | 1.2 ± 0.4 nM | 0.8 ± 0.1 nM | 0.7 ± 0.2 nM | 1.3 ± 0.5 nM |  |
| C[C@H]1[C@H](N2CCN(C(=O)Nc3ccc(F)cc3)CC2)O[C@@H]2O[C@@]3(C)CC[C@H]4[C@H](C)CC[C@@H]1[C@@]24OO3 [Arylurea 10] | 0.6 | 149 L/h/kg | < 10 min |  |  |  | 106 nM | 94.85±2.76% | 1.16 ± 0.17 nM | 5160 nM | 204000 nM |  | 1.3 ± 0.1 nM |  |  |  |  |
| C[C@H]1[C@@H](O)O[C@@H]2O[C@@]3(C)CC[C@H]4[C@H](C)CC[C@@H]1[C@@]24OO3 [DHA 2, dihydroartemisinin] | 0.4 | 3.01 L/h/kg | 136 min | 0.8 ± 0.5 nM | 0.57 ± 0.01 nM | 0.37 ± 0.11 nM |  |  | 1.74 ± 0.22 nM |  | 25200 nM |  | 2.51 ± 0.19 nM | 1.3 ± 0.2 nM | 1.4 ± 0.4 nM | 2.2 ± 0.8 nM |  |
| C[C@H]1[C@H](N2C=CS(=O)(=O)CC2)O[C@@H]2O[C@@]3(C)CC[C@H]4[C@H](C)CC[C@@H]1[C@@]24OO3 [M1 12] | 0.3 | 2.24 L/h/kg | > 150 min |  |  |  |  |  |  |  |  |  |  | 2.6 ± 0.8 nM | 2.5 ± 0.4 nM | 6.6 ± 0.4 nM |  |
| C[C@H]1[C@H](NS(N)(=O)=O)O[C@@H]2O[C@@]3(C)CC[C@H]4[C@H](C)CC[C@@H]1[C@@]24OO3 [Sulfamide 7] | 0.3 | 2.48 L/h/kg | > 150 min |  |  |  |  |  | 2.04 ± 0.11 nM |  | 56000 ± 4600 nM | 294 mg/liter and 811 μM | 3 ± 1 nM |  |  |  |  |
